How the values were obtained:
Plasmodium falciparum [1] = test: Antimalarial activity against chloroquine-sensitive Plasmodium falciparum 3D7 infected in erythroctes incubated for 72 hrs by SYBR green 1 based spectrofluorometer; assay type: functional, organism-based, Erythrocyte; details: erythrocyte
Plasmodium falciparum [2] = test: Antimalarial activity against chloroquine-resistant Plasmodium falciparum K1 infected in erythroctes incubated for 72 hrs by SYBR green 1 based spectrofluorometer; assay type: functional, organism-based, Erythrocyte; details: erythrocyte

Row | Compound | EC50 (Plasmodium falciparum [1]) | EC50 (Plasmodium falciparum [2])
1 | CCOC(=O)C1=C(c2ccccc2)NC2=C(C(=O)CC(c3ccc(OC)c(OC)c3)C2)C1c1ccccc1Cl (mixture of isomers) | 176 nM | 92.3 nM
2 | CCOC(=O)C1=C(C)NC2=C(C(=O)CC(c3ccc(Cl)c(OC)c3)C2)C1c1ccccc1Cl (mixture of isomers) | 47.7 nM | 51.2 nM
3 | CCOC(=O)C1=C(C)NC2=C(C(=O)CC(c3ccc(OC)c(OC)c3)C2)C1c1ccc(Cl)cc1C (mixture of isomers) | 55.1 nM | 38.5 nM
4 | CCCC1=C(C(=O)OCC)C(c2ccccc2Cl)C2=C(CC(c3ccc(OC)c(OC)c3)OC2=O)N1 (mixture of isomers) | 29 nM | 15.5 nM
5 | CCCOC(=O)C1=C(C)NC2=C(C(=O)OC(c3ccc(OC)c(OC)c3)C2)C1c1ccccc1Cl (mixture of isomers) | 1670 nM | 1630 nM
6 | CCOC(=O)C1=C(C)NC2=C(C(=O)OC(c3ccc(OC)c(OC)c3)C2)C1c1ccc(Cl)cc1C (mixture of isomers) | 19.5 nM | 46.8 nM
7 | CCOC(=O)C1=C(C)NC2=C(C(=O)CC(c3cc(OC)c(OC)c(OC)c3)C2)C1c1ccccc1Cl (mixture of isomers) | 3.6 nM | 4.9 nM
8 | COc1ccc(C2CC3=C(C(=O)O2)C(c2ccccc2Cl)C(C(=O)OCc2ccccc2)=C(C)N3)cc1OC (mixture of isomers) | > 7500 nM | > 7500 nM
9 | CCOC(=O)C1=C(C)NC2=C(C(=O)OC(c3ccc(OC)c(OC)c3)C2)C1c1ccc(Br)cc1 (mixture of isomers) | 213 nM | 634 nM
10 | COC(=O)C1=C(C)NC2=C(C(=O)OC(c3ccc(OC)c(OC)c3)C2)C1c1ccccc1Cl (mixture of isomers) | > 9400 nM | > 9400 nM
11 | CCOC(=O)C1=C(C(=O)OCC)C(c2ccccc2Cl)C2=C(CC(c3ccc(OC)c(OC)c3)OC2=O)N1 (mixture of isomers) | 58.7 nM | 22.2 nM
12 | CCOC(=O)C1=C(C)NC2=C(C(=O)OC(c3ccc(OC)c(OC)c3)C2)C1c1ccccc1C (mixture of isomers) | 72.7 nM | 123 nM
13 | CCCC1=C(C(=O)OCC)C(c2ccccc2Cl)C2=C(CC(c3ccc(OC)c(OC)c3)CC2=O)N1 (mixture of isomers) | 2.3 nM | 3.8 nM
14 | COCC1=C(C(=O)OC)C(c2ccc(Cl)cc2C)C2=C(CC(c3ccc(OC)c(OC)c3)OC2=O)N1 (mixture of isomers) | 112 nM | 81.3 nM
15 | CCCC1=C(C(=O)OCC)C(c2ccc(Cl)cc2C)C2=C(CC(c3ccc(Cl)c(OC)c3)CC2=O)N1 (mixture of isomers) | 27.9 nM | 48.9 nM
16 | CCCC1=C(C(=O)OCC)C(c2ccc(Cl)cc2C)C2=C(CC(c3cc(OC)ccc3OC)CC2=O)N1 (mixture of isomers) | 55.1 nM | 44.4 nM
17 | CCOC(=O)C1=C(C)NC2=C(C(=O)OC(c3ccccc3)C2)C1c1ccccc1Cl (mixture of isomers) | > 10000 nM | 
18 | CCCC1=C(C(=O)OCC)C(c2ccc(Cl)cc2C)C2=C(CC(c3ccc(OC)c(OC)c3)OC2=O)N1 (mixture of isomers) | 30 nM | 22 nM
19 | CCOC(=O)C1=C(C)NC2=C(C(=O)OC(c3ccc(OC)c(OC)c3)C2)C1c1ccccc1Cl (mixture of isomers) | 372 nM | 323 nM
20 | CCOC(=O)C1=C(C)NC2=C(C(=O)OC(c3ccc(Cl)c(OC)c3)C2)C1c1ccccc1Cl (mixture of isomers) | 595 nM | 345 nM

Row | Compound | EC50 (Plasmodium falciparum [1]) | EC50 (Plasmodium falciparum [2])
21 | COc1ccc(C2CC3=C(C(=O)O2)C(c2ccccc2Cl)C(C(=O)OC(C)(C)C)=C(C)N3)cc1OC (mixture of isomers) |  | 2650 nM
22 | CCOC(=O)C1=C(C)NC2=C(C(=O)OC(c3ccc(Cl)c(OC)c3)C2)C1c1ccc(Cl)cc1C (mixture of isomers) | 80 nM | 73.2 nM
23 | CCOC(=O)C1=C(C)NC2=C(C(=O)OC(c3ccc(OC)c(OC)c3)C2)C1c1ccc(C)cc1 (mixture of isomers) | 1250 nM | 1610 nM
24 | CCOC(=O)C1=C(C)NC2=C(C(=O)OC(c3ccc(OC)c(OC)c3)C2)C1c1ccccc1OC (mixture of isomers) | > 5500 nM | 
25 | COCC1=C(C(=O)OC)C(c2ccc(Cl)cc2)C2=C(CC(c3cc(OC)c(OC)c(OC)c3)OC2=O)N1 (mixture of isomers) | 30.8 nM | 43.6 nM
26 | CCOC(=O)C1=C(C)NC2=C(C(=O)OC(c3ccc(Cl)cc3)C2)C1c1ccccc1Cl (mixture of isomers) | > 5500 nM | > 5500 nM
27 | COCC1=C(C(=O)OC)C(c2ccc(Cl)cc2C)C2=C(CC(c3ccc(OC)c(OC)c3)CC2=O)N1 (mixture of isomers) | 2.4 nM | 4.6 nM
28 | CCOC(=O)C1=C(C)NC2=C(C(=O)CC(c3ccc(OC)c(OC)c3)C2)C1c1ccc(Cl)cc1 (mixture of isomers) | 16.3 nM | 18.9 nM
29 | CCOC(=O)C1=C(C)NC2=C(C(=O)OC(c3ccc(OC)c(OC)c3)C2)C1c1ccccc1 (mixture of isomers) | 180 nM | 120 nM
30 | CCOC(=O)C1=C(C)NC2=C(C(=O)CC(c3ccc(Cl)c(OC)c3)C2)C1c1ccc(Cl)cc1C (mixture of isomers) | 78.3 nM | 69.1 nM
31 | CCOC(=O)C1=C(C)NC2=C(C(=O)OC(c3cccc(OC)c3)C2)C1c1ccccc1Cl (mixture of isomers) | 2420 nM | > 6000 nM
32 | CCOC(=O)C1=C(C)NC2=C(C(=O)OC(c3ccccc3Cl)C2)C1c1ccccc1Cl (mixture of isomers) | > 6000 nM | > 6000 nM
33 | CCCC1=C(C(=O)OCC)C(c2ccc(Cl)cc2C)C2=C(CC(c3ccc(OC)c(OC)c3)CC2=O)N1 (mixture of isomers) | 13.5 nM | 24.1 nM
34 | CCOC(=O)C1=C(C)NC2=C(C(=O)CC(c3ccc(OC)c(OC)c3)C2)C1c1ccccc1Cl (mixture of isomers) | 17.1 nM | 28 nM
35 | CCOC(=O)C1=C(C)NC2=C(C(=O)OC(c3ccc(OC)c(OC)c3)C2)C1c1ccccc1 (stereo in doubt; 1B) | 83 nM | 80 nM
36 | CCOC(=O)C1=C(C)NC2=C(C(=O)CC(c3ccc(OC)c(OC)c3)C2)C1c1ccccc1Cl (stereo in doubt; 2B) | 13.5 nM | 15.7 nM
37 | CCOC(=O)C1=C(C)NC2=C(C(=O)OC(c3ccc(OC)c(OC)c3)C2)C1c1ccc(Cl)cc1 (stereo in doubt; 5) | 91.8 nM | 160 nM
38 | CCOC(=O)C1=C(C)NC2=C(C(=O)OC(c3ccc(OC)c(OC)c3)C2)C1c1ccc(Cl)cc1 (stereo in doubt; 5B) | 47.6 nM | 53.8 nM
39 | CCOC(=O)C1=C(C)NC2=C(C(=O)OC(c3ccc(OC)c(OC)c3)C2)C1c1ccccc1C (stereo in doubt; 6B) | 38.5 nM | 59.7 nM
40 | CCOC(=O)C1=C(C)NC2=C(C(=O)OC(c3ccc(OC)c(OC)c3)C2)C1c1ccc(C)cc1 (stereo in doubt; 8B) | 638 nM | 605 nM

Row | Compound | EC50 (Plasmodium falciparum [1]) | EC50 (Plasmodium falciparum [2])
41 | CCOC(=O)C1=C(C)NC2=C(C(=O)OC(c3ccc(OC)c(OC)c3)C2)C1c1ccccc1OC (stereo in doubt; 9B) | 2050 nM | > 5500 nM
42 | CCOC(=O)C1=C(C)NC2=C(C(=O)OC(c3ccc(OC)c(OC)c3)C2)C1c1ccc(Br)cc1 (stereo in doubt; 12B) | 59 nM | 341 nM
43 | CCOC(=O)C1=C(C)NC2=C(C(=O)OC(c3ccc(OC)c(OC)c3)C2)C1c1ccc([N+](=O)[O-])cc1 (stereo in doubt; 13B) | 2710 nM | 2200 nM
44 | CCOC(=O)C1=C(C)NC2=C(C(=O)OC(c3ccccc3)C2)C1c1ccccc1Cl (stereo in doubt; 17B) | > 11000 nM | 
45 | CCOC(=O)C1=C(C)NC2=C(C(=O)OC(c3ccc(Cl)cc3)C2)C1c1ccccc1Cl (stereo in doubt; 20B) | 2860 nM | 2160 nM
46 | CCOC(=O)C1=C(C)NC2=C(C(=O)OC(c3cccc(C)c3)C2)C1c1ccccc1Cl (stereo in doubt; 22B) | > 6000 nM | > 6000 nM
47 | CCOC(=O)C1=C(C)NC2=C(C(=O)OC(c3ccc(C)cc3)C2)C1c1ccccc1Cl (stereo in doubt; 23B) | > 6000 nM | 1580 nM
48 | CCOC(=O)C1=C(C)NC2=C(C(=O)OC(c3ccccc3OC)C2)C1c1ccccc1Cl (stereo in doubt; 24B) | > 5500 nM | > 5500 nM
49 | CCOC(=O)C1=C(C)NC2=C(C(=O)OC(c3cccc(OC)c3)C2)C1c1ccccc1Cl (stereo in doubt; 25B) | 626 nM | 363 nM
50 | CCOC(=O)C1=C(C)NC2=C(C(=O)OC(c3ccc(OC)cc3)C2)C1c1ccccc1Cl (stereo in doubt; 26B) | 2160 nM | 1960 nM
51 | COc1ccc(C2CC(=O)C3=C(C2)NC(C)=C(C(=O)O)C3c2ccccc2Cl)cc1OC (stereo in doubt; 27B) | > 12000 nM | 
52 | COC(=O)C1=C(C)NC2=C(C(=O)OC(c3ccc(OC)c(OC)c3)C2)C1c1ccccc1Cl (stereo in doubt; 28B) | 798 nM | 417 nM
53 | CCCOC(=O)C1=C(C)NC2=C(C(=O)OC(c3ccc(OC)c(OC)c3)C2)C1c1ccccc1Cl (stereo in doubt; 29B) | 458 nM | 332 nM
54 | COc1ccc(C2CC3=C(C(=O)O2)C(c2ccccc2Cl)C(C(=O)OC(C)(C)C)=C(C)N3)cc1OC (stereo in doubt; 30B) |  | 272 nM
55 | COc1ccc(C2CC3=C(C(=O)O2)C(c2ccccc2Cl)C(C(=O)OCc2ccccc2)=C(C)N3)cc1OC (stereo in doubt; 31B) | > 9100 nM | > 9100 nM
56 | CCOC(=O)C1=C(C(=O)OCC)C(c2ccccc2Cl)C2=C(CC(c3ccc(OC)c(OC)c3)OC2=O)N1 (stereo in doubt; 33B) | 119 nM | 77.6 nM
57 | CCOC(=O)C1=C(c2ccccc2)NC2=C(C(=O)CC(c3ccc(OC)c(OC)c3)C2)C1c1ccccc1Cl (stereo in doubt; 35B) | 40.5 nM | 46.7 nM
58 | CCOC(=O)C1=C(C)NC2=C(C(=O)CC(c3ccc(OC)c(OC)c3)C2)C1c1ccc(Cl)cc1 (stereo in doubt; 36B) | 10.3 nM | 9.3 nM
59 | CCCC1=C(C(=O)OCC)C(c2ccc(Cl)cc2C)C2=C(CC(c3cc(OC)ccc3OC)CC2=O)N1 (stereo in doubt; 48B) | 37.5 nM | 46.8 nM

Source: ChEMBL document CHEMBL5579840, “Optimization of diastereomeric dihydropyridines as antimalarials” (Eur J Med Chem, 2024)
